From publication PMC4942781, “A sodium channel inhibitor ISTX-I with a novel structure provides a new hint at the evolutionary link between two toxin folds” (Scientific Reports, 2016)
Bridge positions count the residues as written; N and C are the ends. Ends that are not written are not given here.

Tests used:
[1] = tested on: TTX-r sodium channel; assay: Whole-cell patch clamp, TTX-r sodium currents in rat DRG neurons; type: cell-based
Procedure: The effects of ISTX-I on voltage-gated ion channels were investigated in the dorsal root ganglion (DRG). DRG neurons were held at −80 mV for over 4 min to allow adequate equilibration between the micropipette solution and the cell interior, and then current traces were evoked using a 50 ms step depolarization to −10 mV every second.
Figure 3 Effects of ISTX-I on voltage-gated ion channels in rat DRG neurons. […] (C) Dose-dependent inhibition of ISTX-I on the TTX-s Nav channel (n = 5). (D) Current-voltage (I-V) relationship for the TTX-s Nav channel currents before (solid circles) and after (open circles) the application of 5 μM ISTX-I (n = 5). […]
(§1) DRG neurons with a large diameter (>[…]) and those with a relatively small diameter (<[…]) were chosen by measuring TTX-s and TTX-r currents, respectively. […] Potassium, calcium, and sodium currents were recorded in experimental cells using whole-cell patch-clamp recordings at room temperature, which were performed with an HEK EPC10 patch-clamp amplifier. […] Experimental data were acquired and analyzed using the programs patch master and Sigmaplot 9.0 (Sigma, USA). […]
Currents were recorded from experimental cells using whole-cell patch clamptechnique at room temperature (22–25 °C). […] K+ currents were recorded using an internal solution containing the followings (in mM): KCl 140, MgCl2 2.5, HEPES 10, and EGTA 11 (pH 7.2). […]

[2] = tested on: hNav1.4; assay: Whole-cell patch clamp, hNav1.4 in HEK293T cells; type: cell-based, human; conditions: 10 μM ISTX-I; 50 ms step to -10 mV from -80 mV
Procedure: (§2) HEK293T (human embryonic kidney) cells were grown in DMEM containing 10% heat-inactivated FBS at 37 °C in a 5% CO2 incubator. The cDNA genes encoding human (h)Nav1.1, (h)Nav1.2, (h)Nav1.3, (h)Nav1.4, (h)Nav1.5, (h)Nav1.6 and (h)Nav1.7 were transiently transfected into HEK293T cells for electrophysiology using Lipofectamine-2000 (Invitrogen) in serum-reduced medium (Opti-MEM, Invitrogen) following the manufacturer’s instructions. The auxiliary subunits hβ1 and enhanced green florescent protein plasmids were cotransfected into HEK293T cells to increase the current density and efficiently select cells with green florescent protein for whole-cell patch-clamp recordings. After 12 h, the HEK293T cells were used for electrophysiological analysis.
as §1
(§3) Currents were recorded from experimental cells using whole-cell patch clamptechnique at room temperature (22–25 °C). […]

[3] = tested on: hNav1.6; assay: Whole-cell patch clamp, hNav1.6 in HEK293T cells; type: cell-based, human; conditions: 10 μM ISTX-I; 50 ms step to -10 mV from -80 mV
Procedure: as §2, §1, §3

Sequence: LCSENGDCAADECCVDTVFEGDMVTRSCEKTTGNFTECPGLTPIA (disulfide 2-14, 8-28, 13-38) [ISTX-I]
- effect on TTX-r sodium channels (summary) [1]: not TTX-r sodium channels
- effect on TTX-r sodium channel currents ([1]; 10 μM ISTX-I, 100 nM TTX to separate TTX-r currents): no effect
- effect on hNav1.4 [2]: no effect
- inhibition of Nav1.6 currents [3]: 10%
